Earlier results as cited in article PMC10425256, “Antioxidant and Enzyme Inhibitory Potential of Streptomyces sp. G-18 Grown in Various Media” (International Journal of Microbiology, 2023).

Row | Compound | inhibition against lipase enzymes (lipase enzymes) | AChE inhibition (AChE)
1 | Cyclipostins | showed inhibition | –
2 | CC(C)=CCC/C(C)=C/Cc1ccc(O)c2nc3cccc(O)c3nc12 [Geranylphenazinediol] | – | low micromolar range
3 | CCCCC/C=C\C/C=C\C[C@@H](C[C@@H]1OC(=O)[C@H]1CCCCCC)OC(=O)[C@H](CC(C)C)NC=O [lipstatin] | showed inhibition | –
